Source: the supplement of paper PMC9013687

Legend:
Danio rerio embryo [1] = assay: EC10 Bladder size_Decrease; higher = less potent; details: exposure time: 4 dpf
Method: (§1)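 Zebrafish embryos (UFZ-OBI strain) were exposed from 2 hpf for 48 h (2 dpf) or 96 h (4 dpf) at 28 °C; spontaneous tail coiling was scored at 25 hpf. Morphological features from automated image analysis (FishInspector), heart rate and locomotor response were fitted with drc models. Quantal endpoints were dichotomised at 2.5 SD from controls and fitted with a log-logistic model; heart rate, pigmentation and STC were normalised to the replicate control mean. Betamethasone was tested as betamethasone dipropionate, diflorasone as diflorasone diacetate.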

Danio rerio embryo [2] = assay: EC50 Bladder size_Decrease; details: exposure time: 4 dpf
Method: as §1

Danio rerio embryo [3] = assay: EC20 Lack of SB; higher = less potent; details: exposure time: 4 dpf
Method: as §1

Danio rerio embryo [4] = assay: EC10 Eye-jaw distance_Decrease; higher = less potent; details: exposure time: 4 dpf
Method: as §1

Danio rerio embryo [5] = assay: EC50 Eye-jaw distance_Decrease; details: exposure time: 4 dpf
Method: as §1

Danio rerio embryo [6] = system: Danio rerio embryo
Method: as §1

Danio rerio embryo [7] = assay: EC20 Body length_Decrease; higher = less potent
Method: as §1

Danio rerio embryo [8] = assay: EC20 LMR dark; higher = less potent; details: exposure time: 4 dpf
Method: as §1

Danio rerio embryo [9] = assay: EC20 Pericard size_Increase; higher = less potent; details: exposure time: 4 dpf
Method: as §1

Danio rerio embryo [10] = assay: EC20 Curvature_Increase; higher = less potent
Method: as §1

Danio rerio embryo [11] = assay: EC20 Bladder size_Decrease; higher = less potent; details: exposure time: 4 dpf
Method: as §1

Danio rerio embryo [12] = assay: EC50 Yolk sac size_Increase; details: exposure time: 4 dpf
Method: as §1

Danio rerio embryo [13] = assay: EC10 Any effect; higher = less potent
Method: as §1

Danio rerio embryo [14] = assay: EC20 Eye-jaw distance_Decrease; higher = less potent; details: exposure time: 4 dpf
Method: as §1

Danio rerio embryo [15] = assay: EC20 Otolith-eye distance_Decrease; higher = less potent; details: exposure time: 4 dpf
Method: as §1

Danio rerio embryo [16] = assay: EC10 Curvature_Increase; higher = less potent
Method: as §1

Danio rerio embryo [17] = assay: spontaneous tail coiling frequency (coils/min/embryo); higher = more spontaneous movement; details: 25 hpf
Method: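 Spontaneous tail coilings of zebrafish embryos exposed from 2 hpf were recorded at 24-25 hpf in 1-min videos and detected by a KNIME workflow from grey-value variance. Betamethasone was tested as the dipropionate, diflorasone as the diacetate.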

Danio rerio embryo [18] = assay: EC10 Body length_Decrease; higher = less potent
Method: as §1

Danio rerio embryo [19] = assay: EC50 Pericard size_Increase; details: exposure time: 4 dpf
Method: as §1

Danio rerio embryo [20] = assay: EC10 Otolith-eye distance_Decrease; higher = less potent; details: exposure time: 4 dpf
Method: as §1

Danio rerio embryo [21] = assay: EC20 Yolk sac size_Increase; higher = less potent; details: exposure time: 4 dpf
Method: as §1

Danio rerio embryo [22] = assay: EC50 Curvature_Increase
Method: as §1

Danio rerio embryo [23] = assay: EC10 LMR dark; higher = less potent; details: exposure time: 4 dpf
Method: as §1

Danio rerio embryo [24] = assay: EC20 Head trunk angle_Decrease; higher = less potent; details: exposure time: 2 dpf
Method: as §1

Danio rerio embryo [25] = assay: EC10 Pericard size_Increase; higher = less potent; details: exposure time: 4 dpf
Method: as §1

Danio rerio embryo [26] = assay: EC10 Yolk sac size_Increase; higher = less potent; details: exposure time: 4 dpf
Method: as §1

Danio rerio embryo [27] = details: exposure time: 4 dpf
Method: as §1

Danio rerio embryo [28] = assay: EC50 Body length_Decrease
Method: as §1

Danio rerio embryo [29] = assay: EC50 Otolith-eye distance_Decrease; details: exposure time: 4 dpf
Method: as §1

Danio rerio embryo [30] = assay: EC20 Any effect; higher = less potent
Method: as §1

CN(Cc1cnc2nc(N)nc(N)c2n1)c1ccc(C(=O)N[C@@H](CCC(=O)O)C(=O)O)cc1 [Methotrexate]
Details | EC10 Bladder size Decrease [µM] | EC10 Eye-jaw distance Decrease [µM] | EC10 LMR dark [µM] | EC10 Otolith-eye distance Decrease [µM] | EC10 Pericard size Increase [µM] | EC10 Yolk sac size Increase [µM] | EC20 Bladder size Decrease [µM] | EC20 Eye-jaw distance Decrease [µM] | EC20 Head trunk angle Decrease [µM] | EC20 LMR dark [µM] | EC20 Lack of SB [µM] | EC20 Otolith-eye distance Decrease [µM] | EC20 Pericard size Increase [µM] | EC20 Yolk sac size Increase [µM] | EC50 Bladder size Decrease [µM] | EC50 Eye-jaw distance Decrease [µM] | EC50 LMR dark [µM] | EC50 Otolith-eye distance Decrease [µM] | EC50 Pericard size Increase [µM] | EC50 Yolk sac size Increase [µM]
Danio rerio embryo [1] | 95.7 | – | – | – | – | – | – | – | – | – | – | – | – | – | – | – | – | – | – | –
Danio rerio embryo [2] | – | – | – | – | – | – | – | – | – | – | – | – | – | – | 108 | – | – | – | – | –
Danio rerio embryo [3] | – | – | – | – | – | – | – | – | – | – | 91 | – | – | – | – | – | – | – | – | –
Danio rerio embryo [4] | – | 122 | – | – | – | – | – | – | – | – | – | – | – | – | – | – | – | – | – | –
Danio rerio embryo [5] | – | – | – | – | – | – | – | – | – | – | – | – | – | – | – | 197 | – | – | – | –
Danio rerio embryo [8] | – | – | – | – | – | – | – | – | – | 206 | – | – | – | – | – | – | – | – | – | –
Danio rerio embryo [9] | – | – | – | – | – | – | – | – | – | – | – | – | 193 | – | – | – | – | – | – | –
Danio rerio embryo [11] | – | – | – | – | – | – | 99.9 | – | – | – | – | – | – | – | – | – | – | – | – | –
Danio rerio embryo [12] | – | – | – | – | – | – | – | – | – | – | – | – | – | – | – | – | – | – | – | 173
Danio rerio embryo [14] | – | – | – | – | – | – | – | 146 | – | – | – | – | – | – | – | – | – | – | – | –
Danio rerio embryo [15] | – | – | – | – | – | – | – | – | – | – | – | 154 | – | – | – | – | – | – | – | –
Danio rerio embryo [19] | – | – | – | – | – | – | – | – | – | – | – | – | – | – | – | – | – | – | 385 | –
Danio rerio embryo [20] | – | – | – | 116 | – | – | – | – | – | – | – | – | – | – | – | – | – | – | – | –
Danio rerio embryo [21] | – | – | – | – | – | – | – | – | – | – | – | – | – | 44.7 | – | – | – | – | – | –
Danio rerio embryo [23] | – | – | 186 | – | – | – | – | – | – | – | – | – | – | – | – | – | – | – | – | –
Danio rerio embryo [24] | – | – | – | – | – | – | – | – | 180 | – | – | – | – | – | – | – | – | – | – | –
Danio rerio embryo [25] | – | – | – | – | 129 | – | – | – | – | – | – | – | – | – | – | – | – | – | – | –
Danio rerio embryo [26] | – | – | – | – | – | 20.2 | – | – | – | – | – | – | – | – | – | – | – | – | – | –
Danio rerio embryo [27] | – | – | – | – | – | – | – | – | – | – | – | – | – | – | – | – | 243 | – | – | –
Danio rerio embryo [29] | – | – | – | – | – | – | – | – | – | – | – | – | – | – | – | – | – | 248 | – | –

Details | EC10 Any effect [µM] | EC10 Body length Decrease [µM] | EC10 Curvature Increase [µM] | EC20 Any effect [µM] | EC20 Body length Decrease [µM] | EC20 Curvature Increase [µM] | EC50 Any effect [µM] | EC50 Body length Decrease [µM] | EC50 Curvature Increase [µM] | EC50 LMR ligth decrease [µM] | spontaneous tail coiling frequency
Danio rerio embryo [6], exposure time: 2 dpf | – | – | – | – | – | – | 207 | – | – | – | –
Danio rerio embryo [6], exposure time: 4 dpf | – | – | – | – | – | – | 116 | – | – | 127 | –
Danio rerio embryo [7], exposure time: 2 dpf | – | – | – | – | 180 | – | – | – | – | – | –
Danio rerio embryo [7], exposure time: 4 dpf | – | – | – | – | 136 | – | – | – | – | – | –
Danio rerio embryo [10], exposure time: 2 dpf | – | – | – | – | – | 168 | – | – | – | – | –
Danio rerio embryo [10], exposure time: 4 dpf | – | – | – | – | – | 188 | – | – | – | – | –
Danio rerio embryo [13], exposure time: 2 dpf | 93.9 | – | – | – | – | – | – | – | – | – | –
Danio rerio embryo [13], exposure time: 4 dpf | 35.7 | – | – | – | – | – | – | – | – | – | –
Danio rerio embryo [16], exposure time: 2 dpf | – | – | 133 | – | – | – | – | – | – | – | –
Danio rerio embryo [16], exposure time: 4 dpf | – | – | 172 | – | – | – | – | – | – | – | –
Danio rerio embryo [17], 43.5 µM | – | – | – | – | – | – | – | – | – | – | 3.02
Danio rerio embryo [17], 65.2 µM | – | – | – | – | – | – | – | – | – | – | 3.58
Danio rerio embryo [17], 97.8 µM | – | – | – | – | – | – | – | – | – | – | 2.42
Danio rerio embryo [17], 146.7 µM | – | – | – | – | – | – | – | – | – | – | 1.83
Danio rerio embryo [17], 220.1 µM | – | – | – | – | – | – | – | – | – | – | 2.71
Danio rerio embryo [17], 330.1 µM | – | – | – | – | – | – | – | – | – | – | 3.53
Danio rerio embryo [17], 440.1 µM | – | – | – | – | – | – | – | – | – | – | 3.51
Danio rerio embryo [18], exposure time: 2 dpf | – | 151 | – | – | – | – | – | – | – | – | –
Danio rerio embryo [18], exposure time: 4 dpf | – | 104 | – | – | – | – | – | – | – | – | –
Danio rerio embryo [22], exposure time: 2 dpf | – | – | – | – | – | – | – | – | 250 | – | –
Danio rerio embryo [22], exposure time: 4 dpf | – | – | – | – | – | – | – | – | 219 | – | –
Danio rerio embryo [28], exposure time: 2 dpf | – | – | – | – | – | – | – | 241 | – | – | –
Danio rerio embryo [28], exposure time: 4 dpf | – | – | – | – | – | – | – | 214 | – | – | –
Danio rerio embryo [30], exposure time: 2 dpf | – | – | – | 126 | – | – | – | – | – | – | –
Danio rerio embryo [30], exposure time: 4 dpf | – | – | – | 55.2 | – | – | – | – | – | – | –
